Source: paper PMC13083723 (Patterns, 2026)
Residues, ends and D or L forms follow the SMILES beside them. *: point of attachment. PhAc = O=C(Cc1ccccc1)*

The compounds below were run on Vero-E6 cells (assay: cells). Conditions: Chlorocebus sabaeus, Vero C1008, 24 h, read-out: PL_Result.
Type: cell-based

First: CC(CNS(=O)(=O)C(C)C)c1ccc(-c2ccc(C#N)cc2)cc1 (stereo not drawn) [SPE_A50062753]
Second: CC(=O)Nc1ccc(S(=O)(=O)Nc2ccc([N+](=O)[O-])cc2)cc1 [SPE_K76845197]
The activation at 10 µM of the first is higher: -2.67% for the first, -3.76% for the second.

First: COc1ccc(-c2sc(NC(=O)C(C)(C)C)nc2C)cc1S(=O)(=O)Nc1ccc(O)cc1 [SPE_K75528696]
Second: Cc1cc(C)c2nc(-c3ccccn3)cc(C(=O)Nc3ccc(S(=O)(=O)Nc4onc(C)c4C)cc3)c2c1 [SPE_K27539181]
The activation at 10 µM of the first is higher: 21.7% for the first, 7.09% for the second.

First: COc1cnc(NS(=O)(=O)c2ccc(N)cc2)nc1 [SPE_K87492696]
Second: Nc1nc(Nc2ccc(S(N)(=O)=O)cc2)nn1C(=O)c1c(F)cccc1F [SPE_K11636097]
The activation at 10 µM of the first is higher: -0.356% for the first, -9.77% for the second.

Going from `COC(=O)C1=CCCN(C)C1` [SPE_K88646909] to `COC(=O)c1ccccc1O` [SPE_K10103010], the activation at 10 µM falls from 3.55% to 2.4%.

Going from `COc1cc(COc2cc(N)c(Cl)cc2C(=O)CCC2CCN(CCNS(C)(=O)=O)CC2)cc(OC)c1` [SPE_K20742498] to `COc1ccc(F)c(F)c1C(=O)c1cnc(NC2CCN(S(C)(=O)=O)CC2)nc1N` [SPE_K52233191], the activation at 10 µM rises from -9.12% to -6.09%.

First: O[C@H]1[C@H](O)[C@@H](O)CN2CC[C@H](O)[C@H]12 [SPE_K20897876]
Second: OCCN1C[C@@H](O)[C@@H](O)C(O)C1CO (stereo partly drawn) [SPE_A63310107]
The activation at 10 µM of the first is higher: 7.21% for the first, -7.51% for the second.

Going from `O=C(O)c1cc(-c2ccc(F)cc2F)ccc1O` [SPE_K22031190] to `Nc1ccc(C(=O)Oc2ccccc2)c(O)c1` [SPE_K73157543], the activation at 10 µM falls from -7.97% to -14.5%.

First: Fc1ccc(C(OCCN2CCN(CCCc3ccccc3)CC2)c2ccc(F)cc2)cc1 [SPE_K32501161]
Second: Clc1ccc(C(OCCN2CCCCC2)c2ccccc2)cc1 (stereo not drawn) [SPE_A80908310]
The activation at 10 µM of the first is lower: -3.21% for the first, 72.5% for the second.

First: COc1ccc(CCN(C)CCCN2CCc3cc(OC)c(OC)cc3CC2=O)cc1OC [SPE_K92446736]
Second: COc1cc2c(cc1OC)C(c1ccc(N)cc1)=NNC(=O)C2 [SPE_K42859542]
The activation at 10 µM of the first is lower: -9.23% for the first, 0.928% for the second.

Going from `O=C1C(Cl)=C(N2CCOCC2)C(=O)N1c1ccc(Cl)c(Cl)c1` [SPE_K79555887] to `Cc1cc(N2CCOCC2)ccc1Nc1nc(NC2CCCCC2)c2nc[nH]c2n1` [SPE_K45551181], the activation at 10 µM falls from 5.74% to -0.298%.

Compared with `CCCc1c(-c2ccc(O)cc2)nn(-c2ccc(O)cc2)c1-c1ccc(O)cc1` [SPE_K00312224], `CCCCC1C(=O)N(c2ccccc2)N(c2ccc(O)cc2)C1=O` (stereo not drawn) [SPE_A33749298] is higher in activation at 10 µM: 1.41% for the first, 2.66% for the second.

Going from `CCN(CCNC(=O)Nc1ccccc1Br)c1cccc(C)c1` [SPE_K03665769] to `CCOC(=O)Nc1ccc(NCc2ccc(F)cc2)cc1N` [SPE_K89917372], the activation at 10 µM falls from -3.7% to -6.22%.

First: OC[C@H]1O[C@H](O)C[C@@H](O)[C@@H]1O [SPE_K97808269]
Second: Cc1cn(C2CC(N=[N+]=[N-])C(CO)O2)c(=O)[nH]c1=O (stereo not drawn) [SPE_A33692381]
The activation at 10 µM of the first is lower: -3.49% for the first, -1.92% for the second.

Going from `O=C(NCC(=O)N1CCCC1)Nc1ccc2cnccc2c1` [SPE_K86718786] to `Clc1ccc(Cn2c(CN3CCCC3)nc3ccccc32)cc1` [SPE_K04704168], the activation at 10 µM rises from -0.0855% to 18%.

Going from `O=C(/C=C/c1ccccc1)NCCO` [SPE_K76021681] to `CCOC(=O)CNC(=O)[C@@H]1CCCN1C(=O)Cc1ccccc1` [SPE_K22520627] (PhAc-Pro-Gly-OEt), the activation at 10 µM falls from 2.18% to -4.57%.

First: COc1cccc([C@H](O)C2CCN(CCc3ccc(F)cc3)CC2)c1OC [SPE_K23647661]
Second: COc1cc(N2CCC(O)CC2)ccc1Nc1cc(Nc2ccccc2S(=O)(=O)C(C)C)c2cc[nH]c2n1 [SPE_K94853001]
The activation at 10 µM of the first is lower: -9.45% for the first, -4.69% for the second.

First: O=C(Nc1ccccc1C(=O)Nc1ccc(CCO)cc1)c1ccc([N+](=O)[O-])cc1 [SPE_K81053848]
Second: COc1ncc2cc(C(=O)Nc3cc(C(=O)NCc4cccc(Cl)c4)ccc3Cl)c(=O)[nH]c2n1 [SPE_K89517477]
The activation at 10 µM of the first is lower: -6.64% for the first, -0.459% for the second.

Compared with `CC(C)OC(=O)c1cc2c(OCC(O)CNC(C)(C)C)cccc2[nH]1` (stereo not drawn) [SPE_A15530910], `CC(C)(C)NCC(O)COc1cccc2[nH]c(=O)[nH]c12` (stereo not drawn) [SPE_A40084411] is lower in activation at 10 µM: 15.8% for the first, 1.76% for the second.

Going from `COc1ccc(OC)c(C2C(C#N)=C(N)Oc3[nH]nc(-c4ccc5ccccc5c4)c32)c1` (stereo not drawn) [SPE_A67036568] to `CC(=O)Nc1nc2c(Oc3cc(-c4ccc(C(F)(F)F)cc4)ncn3)cccc2s1` [SPE_K34185671], the activation at 10 µM falls from -6.11% to -12.4%.

Compared with `CN(C)c1nc(N)c(C(=O)Nc2cccnc2)nc1Cl` [SPE_K68633617], `CC1(C)CNc2cc(NC(=O)c3cccnc3NCc3ccncc3)ccc21` [SPE_K99616396] is higher in activation at 10 µM: -11.7% for the first, -4.48% for the second.

First: CCCCCCCCCCCCCCCCCCCCCC(=O)Nc1ccn([C@@H]2O[C@H](CO)[C@@H](O)[C@@H]2O)c(=O)n1 [SPE_K32007074]
Second: CC(C)=CCC[C@](C)(O[C@@H]1O[C@H](CO)[C@@H](O)[C@H](O)[C@H]1O)[C@H]1CC[C@]2(C)[C@@H]1[C@H](O)C[C@@H]1[C@@]3(C)CC[C@H](O)C(C)(C)[C@@H]3CC[C@]12C [SPE_K01942833]
The activation at 10 µM of the first is higher: -0.592% for the first, -8.36% for the second.

Going from `O=C(NC[C@H](O)CN1CCc2ccccc2C1)c1cc(NC2COC2)ncn1` [SPE_K70446295] to `CCC(=O)c1ccc(OCC(O)CN2CCN(c3ccccc3)CC2)cc1` (stereo not drawn) [SPE_A28958257], the activation at 10 µM rises from -3.31% to -1.6%.

First: C[C@@H](c1ncncc1F)[C@](O)(Cn1cncn1)c1ccc(F)cc1F [SPE_K06557128]
Second: Fc1ccc(CN2CCC(Nc3ccc(C(F)(F)F)nn3)CC2)cc1F [SPE_K31802667]
The activation at 10 µM of the first is lower: -4.59% for the first, 4.7% for the second.

Compared with `O=C(O)C1CN(CCCP(=O)(O)O)CCN1` (stereo not drawn) [SPE_A60832661], `O=C(O)[C@@H]1C[C@@H](O)CN1` [SPE_A12454076] is lower in activation at 10 µM: -0.285% for the first, -8.44% for the second.

Compared with `CC(C)CC(NC(=O)C1CCCN1)C(=O)NCC(N)=O` (stereo not drawn) [SPE_A09911125] (H-Pro-Leu-Gly-NH2; configuration not given here), `CNC(=O)[C@H](Cc1ccccc1)NC(=O)[C@H](CC(C)C)[C@H](CSc1cccs1)C(=O)NO` [SPE_K82818427] is higher in activation at 10 µM: -6.88% for the first, 11.4% for the second.

First: CN1CCN(c2c(F)cc3c(=O)c(C(=O)O)cn4c3c2SCC4)CC1 [SPE_K62374253]
Second: CNC1CCCN(c2c(F)cc3c(=O)c(C(=O)O)cn(C4CC4)c3c2OC)C1 (stereo not drawn) [SPE_A47790386]
The activation at 10 µM of the first is lower: -11.9% for the first, 3.04% for the second.

Going from `CC(C)(C)C(=O)OCC(=O)[C@H]1CC[C@H]2[C@@H]3CCC4=CC(=O)CC[C@]4(C)[C@H]3CC[C@]12C` [SPE_K26024145] to `C[C@H](CCC(=O)O)[C@H]1CC[C@H]2[C@@H]3C[C@H](O)[C@@H]4C[C@H](O)CC[C@]4(C)[C@H]3CC[C@]12C` [SPE_K49031386], the activation at 10 µM rises from -4.69% to -3.75%.

Going from `Oc1nc(-c2ccc(C(F)(F)F)cc2)nc2c1CSCC2` [SPE_K12762134] to `CCCN(C/C=C/I)C1CCc2cccc(O)c2C1` (stereo not drawn) [SPE_A60594020], the activation at 10 µM rises from -6.13% to 6.75%.

First: CC(C)CCN1c2nc(Nc3cc(F)c(O)c(F)c3)ncc2N(C)C(=O)C1C (stereo not drawn) [SPE_A81370665]
Second: CCN1C[C@H](C)n2c(c(O)c3c(=O)n(Cc4ccc(F)c(Cl)c4)nc(C(=O)NC)c32)C1=O [SPE_K03128512]
The activation at 10 µM of the first is lower: -5.78% for the first, 7.85% for the second.

First: Oc1cccc(Nc2ccc(Nc3cccc(O)c3)nn2)c1 [SPE_K38687824]
Second: Oc1cc(O)cc(/C=C/c2ccc(O)c(O)c2)c1 [SPE_K91509126]
The activation at 10 µM of the first is lower: -9.16% for the first, 9.23% for the second.

First: Cc1nccc2[nH]c(=O)ccc12 [SPE_K40715924]
Second: Nc1nnc2[nH]c3ccccc3nc1-2 [SPE_K87932577]
The activation at 10 µM of the first is higher: -2.15% for the first, -2.99% for the second.

Going from `Cc1c(N)cccc1Cn1ccc(OCCc2cccs2)cc1=O` [SPE_K48888725] to `O=c1c2ccccc2oc2ccccc12` [SPE_K27135764], the activation at 10 µM rises from 1.09% to 4.69%.

Going from `CC(C)Cn1cnc2c1c(=O)n(C)c(=O)n2C` [SPE_K06762493] to `Cc1nnc(C(=O)NC(C)(C)c2nc(C(=O)NCc3ccc(F)cc3)c(O)c(=O)n2C)o1` [SPE_K05658747], the activation at 10 µM falls from -8.79% to -12.8%.

Compared with `CCN1C(=O)NC(c2ccccc2)C1=O` (stereo not drawn) [SPE_A30205217], `NCC1CC(=O)N(Cc2ccccc2)C1` (stereo not drawn) [SPE_A51355958] is higher in activation at 10 µM: -4.7% for the first, 2% for the second.

Going from `CNCCc1ccc(O)c(O)c1` [SPE_K33151569] to `C[C@H](N)[C@H](O)c1cccc(O)c1` [SPE_K96253961], the activation at 10 µM falls from -7.82% to -12.2%.

First: CN1CCC(=C2c3ccccc3CC(=O)c3sccc32)CC1 [SPE_K28936863]
Second: CCCCOc1nc(N)c2c(n1)N(Cc1cccc(CN3CCCC3)c1)CC(=O)N2 [SPE_K73585091]
The activation at 10 µM of the first is higher: -4.71% for the first, -10.5% for the second.

Going from `Cc1cc(C)cc(C(=O)OC2CC3CCC(C2)N3C)c1` (stereo not drawn) [SPE_A84389633] to `O=C(Nc1c(Cl)cncc1Cl)c1ccc(OC(F)F)c(OCC2CC2)c1` [SPE_K03194791], the activation at 10 µM falls from 9.75% to -2.86%.

First: CC(C)(C)NCC(O)COc1cccc2c1CCC(=O)N2 (stereo not drawn) [SPE_A42167015]
Second: COc1cc2ncnc(Nc3ccc(F)c(Cl)c3)c2cc1OCCCN1CCOCC1 [SPE_K64052750]
The activation at 10 µM of the first is higher: 2.81% for the first, -10.1% for the second.

Compared with `NCc1cc(O)no1` [SPE_K60441002], `NC(C(=O)O)c1nnn[nH]1` (stereo not drawn) [SPE_A14757586] is higher in activation at 10 µM: -7.28% for the first, -5.28% for the second.

Compared with `O=C(c1ccc(CN2CCOCC2)cc1)N1CCN(C2CC2)CC1` [SPE_K79595931], `CC(=O)c1ccc(S(=O)(=O)NC(=O)NC2CCCCC2)cc1` [SPE_K52960356] is higher in activation at 10 µM: -2.77% for the first, 6.72% for the second.

First: CC(C)C[C@H](NC(=O)CNC(=O)c1cc(Cl)ccc1Cl)B1OC(=O)C(CC(=O)O)(CC(=O)O)O1 [SPE_K15203492]
Second: CCCN(CCC)C(=O)Cc1c(-c2ccc(Cl)cc2)nc2ccc(Cl)cn12 [SPE_K66896751]
The activation at 10 µM of the first is lower: -7.87% for the first, -0.969% for the second.

Going from `CCN(CC)C(=S)SSC(=S)N(CC)CC` [SPE_K32744045] to `C[C@H](CCC(=O)NCCS(=O)(=O)O)[C@H]1CC[C@H]2[C@@H]3[C@@H](O)C[C@@H]4C[C@H](O)CC[C@]4(C)[C@H]3CC[C@]12C` [SPE_K45245728], the activation at 10 µM falls from 5.11% to -11.6%.
